We go through 22 molecules from patent publication US20250388593A1 (MITSUBISHI TANABE PHARMA CORPORATION, priority 2023, published 2025).

A value given as a limit tells only on which side of the number the result lay.

CRBN truncate (318-426), sequence (Q96SW2 318-426): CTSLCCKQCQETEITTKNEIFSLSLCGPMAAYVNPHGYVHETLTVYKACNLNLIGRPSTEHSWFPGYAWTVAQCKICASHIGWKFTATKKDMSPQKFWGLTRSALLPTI

The test has as its target CRBN truncate (318-426) (Homo sapiens (Human), UniProt Q96SW2). Briefly: Measurement of molecular interactions using surface plasmon resonance (SPR), Biacore T200. It is filed as binding. As to conditions: 25° C., immobilized CRBN truncate, upper limit of measurement 200 μM. The essentials: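 Compound injections used 60 s association and 120 s dissociation in HEPES pH 7.5 buffer (150 mM NaCl, 1 mM TCEP, 0.005% Tween 20, 2% DMSO). The ligand was CRBN truncate 318-426 bearing a C-terminal Avi-tag, immobilised via streptavidin on an SA sensor chip.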
As to `Cc1sc2c(c1C)C(c1ccc(Cl)cc1)=N[C@@H](CC(=O)NCCCCCCCCNC(=O)c1ccc(N3CC4(CC(=O)N(C5CCC(=O)NC5=O)C4=O)C3)nc1)c1nnc(C)n1-2` (stereo partly drawn) [Example 330, N-[8-[[2-[(9S)-7-(4-chlorophenyl)-4,5,13-trimethyl-3-thia-1,8,11,12-tetraazatricyclo[8.3.0.02,6]trideca-2(6),4,7,10,12-pentaen-9-yl]acetyl]amino]octyl]-6-[6-(2,6-dioxopiperidin-3-yl)-5,7-dioxo-2,6-diazaspiro[3.4]octan-2-yl]pyridine-3-carboxamide], the Kd was less than 50 µM.
As for `Cc1sc2c(c1C)C(c1ccc(Cl)cc1)=N[C@@H](CC(=O)NCCc1ccc(S(=O)(=O)N3CC4(CC(=O)N(C5CCC(=O)NC5=O)C4=O)C3)cc1)c1nnc(C)n1-2` (stereo partly drawn) [Example 317, 2-[(9S)-7-(4-chlorophenyl)-4,5,13-trimethyl-3-thia-1,8,11,12-tetraazatricyclo[8.3.0.02,6]trideca-2(6),4,7,10,12-pentaen-9-yl]-N-[2-[4-[[6-(2,6-dioxopiperidin-3-yl)-5,7-dioxo-2,6-diazaspiro[3.4]octan-2-yl]sulfonyl]phenyl]ethyl]acetamide], the dissociation constant Kd is less than 50 µM.
On to `O=C1CCC(N2C(=O)CC3(CN(C4CCN(CC(=O)OCc5ccccc5)CC4)C3)C2=O)C(=O)N1` (stereo not shown) [Example 277, Benzyl 2-[4-[6-(2,6-dioxopiperidin-3-yl)-5,7-dioxo-2,6-diazaspiro [3.4]octan-2-yl]piperidin-1-yl]acetate], for which the Kd was less than 50 µM.
Take `Cc1sc2c(c1C)C(c1ccc(Cl)cc1)=N[C@@H](CC(=O)NCCCCCCCCNC(=O)CCc1cccc3c1n(C)c(=O)n3C1CCCC(=O)NC1=O)c1nnc(C)n1-2` (stereo partly drawn) [Example 333, N-[8-[[2-[(9S)-7-(4-chlorophenyl)-4,5,13-trimethyl-3-thia-1,8,11,12-tetraazatricyclo[8.3.0.02,6]trideca-2(6),4,7,10,12-pentaen-9-yl]acetyl]amino]octyl]-3-[1-(2,7-dioxoazepan-3-yl)-3-methyl-2-oxobenzimidazol-4-yl]propanamide]: the Kd is less than 50 µM.
`Nc1nccc(N2CC3(CC(=O)N(C4CCC(=O)NC4=O)C3=O)C2)n1` (stereo not shown) [Example 230, 2-(2-Aminopyrimidin-4-yl)-6-(2,6-dioxopiperidin-3-yl)-2,6-diazaspiro[3.4]octane-5,7-dione] yielded a dissociation constant (Kd) not below 100 µM.
Then `Cn1nc(N2CC=CC(=O)NC2=O)c2ccc(Br)cc21` [Example 281, 3-(6-Bromo-1-methylindazol-3-yl)-4H-1,3-diazepine-2,7-dione], with not below 100 µM; and `O=C1CCCN(c2ccc3ncccc3c2)C(=O)N1` [Example 117, 1-Quinolin-6-yl-1,3-diazepane-2,4-dione], with not below 100 µM; and `Cc1sc2c(c1C)C(c1ccc(Cl)cc1)=N[C@@H](CC(=O)NCCCCCCCCNC(=O)COc1ccccc1-c1cn(C3CCCC(=O)NC3=O)nn1)c1nnc(C)n1-2` (stereo partly drawn) [Example 340, 2-[(9S)-7-(4-chlorophenyl)-4,5,13-trimethyl-3-thia-1,8,11,12-tetraazatricyclo[8.3.0.02,6]trideca-2(6),4,7,10,12-pentaen-9-yl]-N-[8-[[2-[2-[1-(2,7-dioxoazepan-3-yl)triazol-4-yl]phenoxy]acetyl]amino]octyl]acetamide], with less than 50 µM.
As to `Cc1sc2c(c1C)C(c1ccc(Cl)cc1)=N[C@@H](CC(=O)NCCCCCCCNc1ccc3nc(N4CCCC(=O)NC4=O)sc3c1)c1nnc(C)n1-2` [Example 312, 2-[(9S)-7-(4-chlorophenyl)-4,5,13-trimethyl-3-thia-1,8,11,12-tetraazatricyclo[8.3.0.02,6]trideca-2(6),4,7,10,12-pentaen-9-yl]-N-[7-[[2-(2,4-dioxo-1,3-diazepan-1-yl)-1,3-benzothiazol-6-yl]amino]heptyl]acetamide], the Kd was less than 50 µM.
As to `O=C1CCCC(n2ncc(Cl)cc2=O)C(=O)N1` (stereo not shown) [Example 248, 3-(4-Chloro-6-oxopyridazin-1-yl)azepane-2,7-dione], the Kd was not below 100 µM.
Regarding `Cc1sc2c(c1C)C(c1ccc(Cl)cc1)=N[C@@H](CC(=O)NCCCCCCCNc1ccc(N3CCC4(CCCC(=O)NC4=O)CC3=O)cc1)c1nnc(C)n1-2` (stereo partly drawn) [Example 314, 2-[(9S)-7-(4-chlorophenyl)-4,5,13-trimethyl-3-thia-1,8,11,12-tetraazatricyclo[8.3.0.02,6]trideca-2(6),4,7,10,12-pentaen-9-yl]-N-[7-[4-(4,7,9-trioxo-3,8-diazaspiro[5.6]dodecan-3-yl)anilino]heptyl]acetamide], the Kd was less than 50 µM.
For the molecule `Cn1c(=O)n(C2CCCC(=O)NC2=O)c2ccc(CCC(=O)OC(C)(C)C)cc21` (stereo not shown) [Example 141], the Kd lay in the range of 50 to 100 µM.
Then `CC(C)(C)OC(=O)COc1cccc(C(=O)NC2CCCC(=O)NC2=O)n1` (stereo not shown) [Example 69, tert-Butyl 2-(6-((2,7-dioxoazepan-3-yl)carbamoyl)pyridin-2-yl) oxyacetate], with 50 to 100 µM; and `CC1(CN2C(=O)c3ccccc3C2=O)CCCC(=O)NC1=O` (stereo not shown) [Example 31, 2-[(3-Methyl-2,7-dioxoazepan-3-yl)methyl]isoindole-1,3-dione], with 50 to 100 µM.
For `O=C1COCC(NC(=O)c2cccc(-c3ccccc3)c2)C(=O)N1` (stereo not shown) [Example 22, N-(3,5-dioxo-1,4-oxazepan-6-yl)-3-phenylbenzamide], the Kd was not below 100 µM.
The molecule `CC(C)(C)OC(=O)COc1cccc(C(=O)NC2CCCC(=O)NC2=O)c1F` (stereo not shown) [Example 67, tert-Butyl 2-[3-[(2,7-dioxoazepan-3-yl)carbamoyl]-2-fluorophenoxy]acetate] had a dissociation constant (Kd) not below 100 µM.
`COC(=O)c1ccc(=O)n(C2CCCC(=O)NC2=O)c1` (stereo not shown) [Example 26, Methyl 1-(2,7-dioxoazepan-3-yl)-6-oxopyridine-3-carboxylate]: the equilibrium dissociation constant (Kd) is not below 100 µM.
Molecule `CC(C)(C)OC(=O)c1cccc(N2CCC3(CCCC(=O)NC3=O)C2)c1` (stereo not shown) [Example 123, tert-Butyl 3-(6,8-dioxo-2,7-diazaspiro [4.6]undecan-2-yl) benzoate] yielded a dissociation constant Kd of less than 50 µM.
In the case of `COc1cccc2sc(N3CC4(CC(=O)N(C5CCC(=O)NC5=O)C4=O)C3)nc12` (stereo not shown) [Example 240, 6-(2,6-Dioxopiperidin-3-yl)-2-(4-methoxy-1,3-benzothiazol-2-yl)-2,6-diazaspiro[3.4]octane-5,7-dione], the Kd was not below 100 µM.
For the molecule `CC(C)(C)OC(=O)C(C)(C)N1CC2(CC(=O)N(C3CCC(=O)NC3=O)C2=O)C1` (stereo not shown) [Example 49, tert-Butyl 2-[6-(2,6-dioxopiperidin-3-yl)-5,7-dioxo-2,6-diazaspiro[3.4]octan-2-yl]-2-methylpropanoate], the Kd is not below 100 µM.
As for `CC(C)(C)OC(=O)NCCCCCCc1cccc(C(=O)N2CCC3(CCCC(=O)NC3=O)C2)c1` (stereo not shown) [Example 158, tert-Butyl N-[6-[3-(6,8-dioxo-2,7-diazaspiro[4.6]undecane-2-carbonyl)phenyl]hexyl]carbamate], the Kd is 50 to 100 µM.
`Cc1sc2c(c1C)C(c1ccc(Cl)cc1)=N[C@@H](CC(=O)NCCCCCCc1ccc(C(=O)N3CCN(C4CCCC(=O)NC4=O)C(=O)C3)cc1Cl)c1nnc(C)n1-2` (stereo partly drawn) [Example 327, N-[6-[2-chloro-4-[4-(2,7-dioxoazepan-3-yl)-3-oxopiperazine-1-carbonyl]phenyl]hexyl]-2-[(9S)-7-(4-chlorophenyl)-4,5,13-trimethyl-3-thia-1,8,11,12-tetraazatricyclo[8.3.0.02,6]trideca-2(6),4,7,10,12-pentaen-9-yl]acetamide] displayed a Kd of less than 50 µM.
